From paper PMC10895676, “Antiviral Activity of Lipophilic Nucleoside Tetraphosphate Compounds” (Journal of Medicinal Chemistry, 2024)
“Also recorded” adds a separate entry of the source.

These molecules were tested against T1, human DNA polymerase γ (Homo sapiens, UniProt P54098) (assay: Primer extension assay using human DNA polymerase γ). Conditions: 120 min, 2 U, 37 °C.
T1 construct: purchased Chimerx
T1 sequence (P54098 1-1239): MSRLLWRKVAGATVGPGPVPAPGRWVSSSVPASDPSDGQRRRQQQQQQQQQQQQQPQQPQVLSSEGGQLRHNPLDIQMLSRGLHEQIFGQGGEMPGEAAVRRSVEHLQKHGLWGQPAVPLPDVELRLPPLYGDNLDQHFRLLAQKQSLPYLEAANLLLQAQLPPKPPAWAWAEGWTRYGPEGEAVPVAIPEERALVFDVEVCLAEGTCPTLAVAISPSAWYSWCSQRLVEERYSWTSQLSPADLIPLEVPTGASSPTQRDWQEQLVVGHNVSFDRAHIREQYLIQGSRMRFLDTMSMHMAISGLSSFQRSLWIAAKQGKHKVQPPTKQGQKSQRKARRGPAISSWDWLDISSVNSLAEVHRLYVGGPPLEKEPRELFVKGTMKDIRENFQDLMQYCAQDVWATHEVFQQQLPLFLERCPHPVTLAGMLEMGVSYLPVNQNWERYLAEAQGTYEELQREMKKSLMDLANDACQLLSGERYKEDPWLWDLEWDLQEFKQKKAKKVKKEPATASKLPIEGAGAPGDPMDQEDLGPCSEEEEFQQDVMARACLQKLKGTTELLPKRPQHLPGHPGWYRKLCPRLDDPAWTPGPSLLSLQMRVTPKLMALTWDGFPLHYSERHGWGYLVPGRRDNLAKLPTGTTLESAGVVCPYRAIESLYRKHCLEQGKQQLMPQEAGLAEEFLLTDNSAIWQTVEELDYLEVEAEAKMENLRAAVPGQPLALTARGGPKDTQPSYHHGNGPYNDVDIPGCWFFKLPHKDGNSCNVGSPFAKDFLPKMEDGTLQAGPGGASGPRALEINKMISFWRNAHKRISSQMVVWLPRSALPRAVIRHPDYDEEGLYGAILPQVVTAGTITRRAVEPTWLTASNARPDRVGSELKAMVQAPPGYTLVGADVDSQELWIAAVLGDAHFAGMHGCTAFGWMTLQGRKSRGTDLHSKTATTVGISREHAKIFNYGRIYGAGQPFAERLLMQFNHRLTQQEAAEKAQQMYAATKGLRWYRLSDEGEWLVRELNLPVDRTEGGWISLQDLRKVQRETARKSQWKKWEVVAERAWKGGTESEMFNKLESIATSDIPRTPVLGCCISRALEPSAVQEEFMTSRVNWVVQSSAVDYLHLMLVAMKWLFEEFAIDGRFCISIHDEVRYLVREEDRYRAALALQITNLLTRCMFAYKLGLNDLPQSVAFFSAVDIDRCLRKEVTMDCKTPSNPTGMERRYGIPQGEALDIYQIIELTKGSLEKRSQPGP
Assay type: biochemical
Excerpt: Encouraged by the previously obtained results that γ-phosphate-modified-d4TDPs 3, γ-monoalkylated d4TTP derivatives as well as d4TDP were accepted as substrates by HIV-RT,[49],[50],[55],[59]−[61] δ-dialkylated d4T tetraphosphate analogues 4,5, δ-monoalkylated d4T tetraphosphate analogues 20 and 24 and d4T4P were investigated in primer extension assays in the presence of HIV-RT or the three different human DNA polymerases α, β and γ. D4TTP (for the compounds 4–9) and the natural thymidine triphosphate (TTP) were used as reference compounds.
Figure 6 Primer extension assay using HIV-RT (A), human polymerases α (B), β (C), and γ (D). (Figure 6A). Primer extension assay using HIV-RT (30 min, 6U). Lane 1: (+) dATP, dCTP, dGTP, and TTP with HIV-RT. Lane 2: (−) dATP, dCTP, dGTP, and TTP without HIV-RT. Lane 3: TTP. […] Lane 5: δ-(C4; C18)-d4T4P 4d. […] Lane 7: δ-(C18)-d4T4P 20. Lane 8: δ-C-(C18)-d4T4P 24. Lane 9: d4T4P. Lane 10: d4TTP. Lane 11: d4TDP. HIV-RT assay reaction conditions: 50 mM Tris–HCl (pH 8.6), 10 mM MgCl2, 40 mM KCl, 250 μM dNTPs, HIV-RT (6 U), 0.20 μM DNA hybrid, primer-template-hybrid 0.32 mM in a reaction volume of 10 μL, incubated at 37 °C for 0.5 h, 80 °C for 7 min. Primer extension assays: 50 mA, 45 w for 4 h. (Figure 6B). For human DNA polymerase α assay (60 min, 2 U): Lane 1: (+) dATP, dCTP, dGTP, and TTP with human polymerase α. Lane 2: (−) dATP, dCTP, dGTP, and TTP without human polymerase α. Lane 3: TTP. […] Lane 5: δ-(C4; C18)-d4T4P 4d. […] Lane 7: δ-(C18)-d4T4P 20. Lane 8: δ-C-(C18)-d4T4P 24. Lane 9: d4T4P. Lane 10: d4TTP. Human DNA polymerase α assay conditions: 60 mM Tris–HCl (pH 8), 5 mM Mg(OAc)2, 100 mM KCl, 1.0 mM dithiothreitol, 0.1 mM spermine, 0.01% (w/v) bovine serum albumin, 250 μM dNTPs, 2 U human polymerase α, 0.20 μM DNA hybrid, and primer-template-hybrid 0.32 mM in a reaction volume of 10 μL, incubated at 37 °C for 1 h, 80 °C for 7 min. Primer extension assays: 50 mA, 45 w for 3 h. (Figure 6C). For human DNA polymerase β assay (60 min, 2 U): Lane 1: (+) dATP, dCTP, dGTP, and TTP with human polymerase β. […]

| SMILES | substrate for human DNA polymerase γ (primer extension) |
| --- | --- |
| CCCCCCCCCCCCCCCCCCOP(=O)(O)OP(=O)(O)OP(=O)(O)OP(=O)(O)OC[C@@H]1C=C[C@H](n2cc(C)c(=O)[nH]c2=O)O1 [compound 20, δ-(Alkyl-C18)-d4T4P] | nonsubstrates |
| CCCCCCCCCCCCCCCCCCP(=O)(O)OP(=O)(O)OP(=O)(O)OP(=O)(O)OC[C@@H]1C=C[C@H](n2cc(C)c(=O)[nH]c2=O)O1 [compound 24, δ-C-(Alkyl-C18)-d4T4P] | nonsubstrates |
| Cc1cn([C@H]2C=C[C@@H](COP(=O)(O)OP(=O)(O)OP(=O)(O)OP(=O)(O)O)O2)c(=O)[nH]c1=O [d4T4P, 2′,3′-didehydro-2′,3′-dideoxythymidine-5′-tetraphosphate] | nonsubstrates; also recorded: not a substrate |
